# Test results taken from ChEMBL document CHEMBL5335812, “PSMA-targeted SMART molecules outfitted with SN38” (Bioorg Med Chem Lett, 2024).
# The source made the active and inactive calls. No cut-off for these calls is given here.
# Legend:
# [1] = Drug metabolism in human C4-2B cells expressing PSMA assessed as payload release incubated for 30 min by confocal microscopy; format: ADME, cell-based; settings: lncap c4-2b, 0.5 h
# [2] = Drug metabolism in human PC-3 cells with PSMA knockout assessed as intracellular SN38 release incubated for 30 min by confocal microscopy; format: ADME, cell-based; settings: pc-3, 0.5 h
# LNCaP C4-2B = assay: Antiproliferative activity against human C4-2B cells expressing PSMA assessed as reduction in cell viability incubated for 72 hrs by cellTiter-Glo Luminescent cell viability assay
# PC-3 = assay: Antiproliferative activity against human PC-3 cells with PSMA knockout assessed as reduction in cell viability incubated for 72 hrs by cellTiter-Glo Luminescent cell viability assay; format: functional, cell-based
# [3] = Stability of the compound assessed as payload release at pH 7.4 measured after 18 hrs by fluorescence based analysis; format: physicochemical; settings: buffer, pH 7.4, 18 h
# [4] = Stability of the compound assessed as payload release at pH 5.0 measured after 18 hrs by fluorescence based analysis; format: physicochemical; settings: buffer, pH 5, 18 h
# [5] = Stability of the compound assessed as payload release at pH 5.5 measured after 18 hrs by fluorescence based analysis; format: physicochemical; settings: buffer, pH 5.5, 18 h
# [6] = Stability of the compound assessed as kinetic half life at pH 4.5; format: physicochemical; settings: buffer
# [7] = Stability of the compound assessed as hydrolysis at pH 7.4 measured after 8 hrs by 31P NMR; format: physicochemical; settings: buffer, pH 7.4, 8 h
# [8] = Stability of the compound assessed as kinetic half life at pH 5; format: physicochemical; settings: buffer
# [9] = Stability of the compound assessed as kinetic half life at pH 5.5; format: physicochemical; settings: buffer
# [10] = Stability of the compound assessed as kinetic half life at pH 6; format: physicochemical; settings: buffer
# [11] = Stability of the compound at pH 7.4; format: physicochemical; settings: buffer
smiles,measurement,setting,value
CCc1c2c(nc3ccc(OC(=O)N(C)CCN(C)P(=O)(O)OCC[C@H](NC(=O)c4ccc(Cn5nnc6c5-c5ccccc5CN(C(=O)CCC(=O)NCCOCCOCCOCCOCCC(=O)NCCCCCC(=O)N[C@@H](CCC(=O)N[C@@H](CCCOP(=O)(O)N[C@@H](CCC(=O)O)C(=O)O)C(=O)O)C(=O)O)c5ccccc5-6)cc4)C(=O)O)cc13)-c1cc3c(c(=O)n1C2)COC(=O)[C@]3(O)CC,Drug metabolism,[1],Metabolite_Detected
same,Drug metabolism,[2],Metabolite_Notdetected
same,IC50,LNCaP C4-2B,3 nM
same,Activity,PC-3,inactive
CCc1c2c(nc3ccc(O)cc13)-c1cc3c(c(=O)n1C2)COC(=O)[C@]3(O)CC [7-ETHYL-10-HYDROXYCAMPTOTHECIN],Stability,[3],Stable
same,Activity,[4],25%
same,Activity,[5],~ 25%
CCc1c2c(nc3ccc(OC(=O)N(C)CCN(C)P(=O)(O)OCC[C@H](NC(=O)c4ccc(CN=[N+]=[N-])cc4)C(=O)O)cc13)-c1cc3c(c(=O)n1C2)COC(=O)[C@]3(O)CC,half-life,[6],1.9 h
same,Stability,[7],Stable
same,half-life,[8],4.3 h
same,half-life,[9],11 h
same,half-life,[10],42 h
same,Stability,[11],Stable
